Source: patent publication US20070110813A1, “Polycation-polyanion complexes, compositions and methods of use thereof” (priority 2005, published 2007)
“Also recorded” adds a separate entry of the source. Read-outs that look alike come from different tables or passages of the source.

Columns and labels:
sheep lungs = type: in vivo
Procedure: Polylysine was delivered to 12 pulmonary subsegments via a bronchoscope in a fibrin gel matrix at 100 mg, 30 mg and 10 mg per subsegment (groups 1, 2 and 3 in FIG. 1). The molecular weight of the polylysine used was 20,000-80,000 Da with an average molecular weight of 55,000 Da. A total of 10 sheep were thus treated.
The characteristic lesion caused by polylysine is renal infarction, consistent with what has been reported in the literature for polycationic injury. In the animals tested with baseline normal renal function, renal damage resulting from cationic injury remains subclinical. […] Thus, these clinical pathology tests were not sufficiently sensitive to detect polycationic renal injury resulting from polylysine. Polycationic renal toxicity following pulmonary treatment is initiated and can be detected only at necropsy within days of treatment. […] The characteristic acute lesion appeared to be renal infarction with associated hemorrhage. Lesions occurred within days (3-7 days) of cationic exposure. Necropsy findings are the most sensitive markers of toxicity.
4 sheep were treated at 12 pulmonary subsegments each with a fibrin gel containing 100 mg chondroitin sulfate (Group 5 in FIG. 1). 2 animals were sacrificed at 8 days and the remaining 2 animals were sacrificed at 4 weeks. […] However, pulmonary responses in these animals were minimal, indicating poor efficacy.
In a series of 4 sheep experiments (Group 6 in FIG. 1), in-situ precipitation of chondroitin sulfate and polylysine solutions was achieved as they exit a dual lumen catheter. Chondroitin sulfate was added to a fibrinogen solution to a final concentration of 20 mg/mL, while polylysine was added to a thrombin solution to a final concentration of 20 mg/mL. Both solutions were 5 mL and were injected through a dual lumen catheter into subsegments of sheep lungs for a total of 10 mL per subsegment.
In a total of 4 sheep (Group 7 in FIG. 1), use of systemic heparin to complex polylysine in the circulation and reduce or prevent renal toxicity was attempted.
Using this precipitation methodology, polylysine related renal toxicity was prevented over a broad polylysine concentration range from 1 mg/mL to 10 mg/mL at chondroitin sulfate concentration of 1 to 5 mg/mL (Groups 9 to 13 in FIG. 1).
Lung volume reduction treatment was performed in 8 consecutive animals at 84 subseguential sites using a formulation containing 13 mg/mL of human fibrinogen, 5 mg/mL of sodium chondroitin sulfate, 5 mg/mL of poly-L-lysine, and polymerized in situ with 1000 U activated human thrombin (Group 13 in FIG. 1).

rats = test: Lung volume reduction in rats, fibrin gel, lungs and kidneys evaluated after 1 week; type: in vivo; settings: 200 U/mL thrombin
Procedure: (§1) Three rats were treated with 5 mg/mL poly(Lys, Glu) to evaluate whether the copolymer could be used to modulate local and/or systemic toxicity. Treatments contained 28.6 mg/mL fibrinogen polymerized with 200 U/mL thrombin. All rats were anesthetized and intubated orotracheally. A dual lumen catheter was placed into a target site in the lung with bronchoscopic guidance. The reagents were injected into the lung and the catheter was removed. Each animal was allowed to recover from anesthesia, and returned to its cage. After 1 week, all animals were euthanized. The extent of pleural scarring was assessed prior to lung removal from the chest cavity. The lungs were then removed en bloc, fully inflated, and evaluated visually to assess the extent of local parenchymal inflammation and scarring produced by treatment. The kidneys were also harvested and evaluated for the presence of cortical lesions and infarctions which can develop as a consequence of systemic toxicity following polycation adminstration.
as §1, with “4” for “Three”, “2.5” for “5”, “polyomithine and 3 were treated with 2.5 mg/mL polyomithine precipitated with 2.5 mg/mL chondroitin sulfate” for “poly(Lys, Glu)”, “precipitation” for “the copolymer”, “administration.” for “adminstration.”

[1] = 5 mg/mL poly(Lys, Glu) in 28.6 mg/mL fibrinogen
[2] = 100 mg/treatment in fibrin gel, 12 pulmonary subsegments (group 1)
[3] = 10 and 30 mg/treatment in fibrin gel (groups 2 and 3)
[4] = 2.5 mg/mL polyornithine in 28.6 mg/mL fibrinogen

## chondroitin sulfate
Sheep lungs; fibrin gel containing 100 mg chondroitin sulfate, 12 subsegments (Group 5)
  pulmonary responses: minimal

## heparin
Sheep lungs; systemic heparin to complex polylysine in the circulation, 4 sheep (Group 7)
  prevention of polylysine renal lesions: did not prevent renal lesions

## poly(Lys, Glu) [copolymer]
rats; [1]
  local pulmonary lesions / efficacy as lung volume reduction agent: no significant local pulmonary lesions; also recorded: failed to demonstrate efficacy
  systemic toxicity, manifest as renal lesions: no incidence of systemic toxicity; also recorded: did not show any systemic toxicity

## poly-L-lysine [polylysine]
Sheep lungs; [2]
  lung injury: severe lung injury
  renal toxicity: renal toxicity manifest as nephropathy and infarction
Sheep lungs; [3]
  pulmonary responses: acceptable pulmonary responses
  renal toxicity: associated with renal toxicity
Sheep lungs; animals with renal lesions at necropsy
  serum BUN or creatinine, urine analysis, urine protein-to-creatinine ratio: No abnormalities
Sheep lungs; renal infarction with associated hemorrhage
  time of occurrence of renal lesions after cationic exposure: 3 to 7 days

## polyornithine
rats; [4]
  local toxicity: significant local toxicity
  systemic toxicity: systemic toxicity, manifest as renal lesions
